“Also recorded” adds a separate entry of the source.
Experiments:
Enterovirus (ECHO-11) = test: microbe, parasite or virus in culture; format: cell-based
human lymphoblasts = test: Lymphoblast DNA synthesis / viability (3H-thymidine incorporation); format: cell-based
Procedure: (§1) In FIGS. 11A through 11E, normal lymphoblasts stimulated with PHA are infected with HIV and at the same time are submitted to various concentrations from 0-10 mM 6-ABP. After the short exposure of 18 hours, both HIV and 6-ABP are removed, FIGS. 11A, 11C, 11E and the 6-ABP in the same concentrations is readded up to 4 days to cultures shown in FIGS. 11B and 11D. At 4 days, proliferation index measured by ^3 H-thymidine incorporation is determined in FIGS. 11A and 11B. […] In FIGS. 11C and […], the viral synthesis or inhibition is measured by p 24 assay.
The viability of lymphoblasts was measured by incubating the cells exposed to IL-2, HIV and to 6-ABP with H3-thymidine for 6 hours on the sixth day of culture and determining the amount of cpm incorporated per 100,000 cells placed in culture.
In order to ascertain that relatively short 18 hours exposure of human lymphoblasts selectively blocks HIV replication and has minimal effects on DNA synthesis of lymphoblasts, the proliferation, p24 and reverse transcriptase experiments were also performed, as shown in FIG. 11.
In panel A (top) DNA synthesis of lymphoblasts is assayed as a function of 6-ABP concentration. In panel A' (lower curve) the decay of HIV replication is simultaneously determined, and in A "panel" reverse transcriptase was assayed. All these are accepted assays for HIV replication.

Adenovirus = test: microbe, parasite or virus in culture; format: cell-based, Adenovirus (patient isolate)
AA-2 cells = test: AA-2 cell count and viability; format: cell-based; settings: 3 mM
Procedure: The effects of 6-ABP treatment of AA-2 cells was directly analyzed by cell count and viability tests including cloning efficiency and trypan blue uptake. The AA2 cell culture having initial cell count per well 0.5×10^5 was submitted to treatment with 3 mM of 6-ABP and compared to untreated (Control) cell culture. The cells were counted 4 days after the treatment with 6-ABP.

[1] = test system: HIV in human lymphoblasts; test: HIV in human lymphoblasts (reverse transcriptase assay); format: cell-based; settings: 18 hours exposure, FIG. 11E
Procedure: as §1
Human peripheral blood mononuclear cells from a noninfected, normal individual were stimulated for 2 to 3 days with phytohemagglutinin in tissue culture, washed, aliquoted and cultured overnight with 200 TCID or 50 TCID of HIV and were untreated or treated with 0.01, 0.1, 1.0 or 10.0 mM 6-ABP. An additional control was incubated with 10 mM 6-ABP without presence of HIV. After the overnight incubation, […]. The cells were placed in culture in medium containing IL-2, but in the absence of additional 6-ABP, and monitored at 6 days and 12 days for the production of HIV-p24 core antigen, or for measurements of particulate reverse transcriptase. […]
HIV p24 antigen was measured by ELISA, with a cutoff of 5 pgm/ml. […]

HIV in MT-2 cells = test: HIV syncytia formation in MT-2 cells; format: cell-based; settings: 3 mM
Procedure: Whereas the activation of latent HIV by various DNAs and its prevention by 6-ABP were shown above, the following experiments examine the effects of 6-ABP on the direct propagation of highly virulent HIV strain obtained from NIH in Molt III cells, using cell supernatant as source of virus on AA-2 and MT2 cells in culture. More than 60 tests were performed varying virus titers, time of exposure, and exposure to 6-ABP.
Equivalent results, shown in FIG. 9, were obtained with MT-2 cells. In FIG. 9, the inhibition of syncytia formation was quantitatively assayed. […] At very high HIV titre, at 1:100 dilution the untreated syncitia formation was 150 times higher than in treated culture.

[2] = test system: HIV in human lymphoblasts; test: HIV production in human lymphoblasts (p24 antigen); format: cell-based, HIV (isolates from blood of infected patients)
Procedure: In FIG. 10, human lymphoblast exposed to 6-ABP for 18 hours. The drug concentrations studied were between 0.01 to 10 mM. HIV production was studied in two time intervals, 6 and 12 days after the drug removal.
as §1
The HIV isolates used in these experiments were isolated from the blood of infected patients. After isolation, HIV infection was established in CEM cells, and these infected cells were used to produce a stock of HIV virus that was titered to measure the concentration of tissue culture infective doses (TCID).
6 ABP was dissolved in saline in amount which was further diluted as required, and added to the culture medium containing cells at the indicated concentrations.
Human peripheral blood mononuclear cells from a noninfected, normal individual were stimulated for 2 to 3 days with phytohemagglutinin in tissue culture, washed, aliquoted and cultured overnight with 200 TCID or 50 TCID of HIV and were untreated or treated with 0.01, 0.1, 1.0 or 10.0 mM 6-ABP. An additional control was incubated with 10 mM 6-ABP without presence of HIV. After the overnight incubation, […]. The cells were placed in culture in medium containing IL-2, but in the absence of additional 6-ABP, and monitored at 6 days and 12 days for the production of HIV-p24 core antigen, or for measurements of particulate reverse transcriptase. A decrease in the amount of either of these indicators of HIV indicated an inhibition by 6-ABP in the ability of HIV to replicate in normal human lymphoblasts.
HIV p24 antigen was measured by ELISA, with a cutoff of 5 pgm/ml. Particulate reverse transcriptase was measured by centrifuging down free virus from tissue culture fluids, lysing HIV in a buffer containing detergent, magnesium, H3-labelled dTTP and poly rA.oligo dT primer, incubating for 1 hour, and measuring precipitable radioactivity, expressed as cpm per volume of HIV-containing medium.

[3] = test system: HIV (activated by HSV IE-110) in U937 cells; test: HIV growth activated by HSV IE110 in U937 cells (syncytium-forming assay)
Procedure: For the purpose of determining the ability of 6-ABP to inhibit HIV growth activation, the duplicate cells cultures were used. In experiments 1 and 2, U937 cells were transfected with HSV IE-110 gene and, CMV IE gene and infected HIV. […] In experiment 3, U937 cells transfected with HSV IE-110 and infected with HIV were treated with 3 mM of 6-ABP.
In all experiments shown in FIG. 3 and 4, the cells were exposed to 3 mM drug for 24 hrs.
DNA transfection was performed with DEAE dextran. Briefly, U937 cells (5×10^6) were exposed for 60 min. at 37° C. to a mixture of DEAE Dextran (1.05 ug/ml) and DNA in STBS buffer (25 mM Tris HCl, having pH 7.5, 137 mM NaCl, 0.5 MgCl2, 0.7 mM CaCl2 and 5 mM KCl and 0.6 mM Na2 HPO4) in 15 ml snap cap 6×35 mm polyethylene dishes from Costar, Cambridge, Mass., at 5×10^6 cells per well. Routinely, transfection mixtures contained 1.0 ug of target supercoiled plasmid and 0.1 ug DNA to equalize nucleic acid concentration effects. Transfected cells were harvested 40 to 44 hr post transfection in CAT harvest buffer (40 mM Tris, having pH 7.4 150 mM NaCl, 1 mM EDTA) and stored at -20° C. until assayed.
In one series of experiments, the effect of HSV IE110 and CMV IE2 gene expression on HIV replication using the syncytium assay formation on MT2 cells that defines HIV growth was examined. The ability of 6-ABP to inhibit HIV growth activation was studied in duplicate cultures. U937 cells were transfected with HSV IE110 CMV IE genes or mock transfected with pBR322 plasmid and duplicate cells were pretreated with HIV. Virus (HIV) growth was assayed at various times thereafter. HIV titers are expressed as syncytia forming units/ml.
Transfection was 24 hours before HIV infection. Sampling was done at days 3, 5, 6, and 8 post infection with HIV. 6-ABP treatment was 24 hours prior to transfection in order to allow intercellular 6-ABP concentration to equilibrate with external drug concentration. The timing chosen and drug dosage relate to drug penetration.

Nc1ccc2oc(=O)ccc2c1 [6-ABP, 6-amino-1,2-benzopyrone]
Virus Titer +6-ABP (Enterovirus) (Enterovirus (ECHO-11); 1 mM 6-ABP, 24 hours before infection, ECHO-11): 1.6 × 10^6 TCID50
effect on Enterovirus growth (Enterovirus (ECHO-11); 6-ABP treatment): no effect
inhibition at 1000 µM (Enterovirus (ECHO-11); Enterovirus, 1 mM 6-ABP, 24 hours before infection, ECHO-11): 0%
viability of lymphoblasts (human lymphoblasts; 4 consecutive days exposure): viability of lymphoblasts was not affected by the drug
DNA synthesis of lymphoblasts (human lymphoblasts; 18 hours exposure, FIG. 11A): does not influence genomic DNA synthesis; also recorded: did not effect the DNA synthesis; also recorded: cellular DNA synthesis virtually unaffected
DNA synthesis of lymphoblasts (human lymphoblasts; 4 days exposure, FIG. 11B): temporarily also inhibited; also recorded: inhibitory effect on lymphoblast DNA synthesis
Virus Titer +6-ABP (Adenovirus) (Adenovirus; 1 mM 6-ABP, 24 hours before infection): 1 × 10^2 TCID50
effect on Adenovirus growth (Adenovirus; 6-ABP treatment): no effect
inhibition at 1000 µM (Adenovirus; unidentified adenovirus, 1 mM 6-ABP, 24 hours before infection): 0%
cell proliferation (AA-2 cells; AA-2 cells): inhibitory effect on cell proliferation
Viability test / cellular toxicity (AA-2 cells; AA-2 cells, cloning efficiency and trypan blue uptake): no evidence of toxic effects; also recorded: does not coincide with any detectable cellular toxicity
Cell Count After 4 days (AA-2 cells; initial count per well 0.5 × 10^5, control 1.5 × 10^5): 0.7 × 10^5 (± 35%)
virus inhibition, reverse transcriptase assay [1]: virus inhibition
HIV production / syncytia formation in MT-2 cells (HIV in MT-2 cells): nearly completely suppressed HIV production
untreated syncytia formation relative to treated culture (HIV in MT-2 cells; HIV titre 1:100 dilution): 150 times
viral multiplication, p 24 assay ([2]; 0-10 mM, 18 hours or 4 days exposure, FIGS. 11C and 11D): almost completely inhibited
HIV production in human lymphoblasts ([2]; 0.1 μM (so in the source), 18 hours exposure, 6 and 12 days): HIV production decreased dramatically
decrease of HIV (p24 tests) ([2]; 0.1 mM, 18 hours exposure, 6 or 12 days past infection): dramatic decrease of HIV
selectivity against HIV replication vs cellular DNA synthesis ([2]; 18 hr exposure, FIG. 11): great selectivity of 6-ABP against HIV replication
effect on activation by HSV IE110 ([3]; 1 mM): virtually abrogates activation by HSV IE110
HIV growth, U937 + HSV IE110 + 6-ABP ([3]; 1 mM, day 3): 32 SFU/ml
HIV growth, U937 + HSV IE110 + 6-ABP ([3]; 1 mM, day 5): 64 SFU/ml
HIV growth, U937 + HSV IE110 + 6-ABP ([3]; 1 mM, day 6): 100 SFU/ml
HIV growth, U937 + HSV IE110 + 6-ABP ([3]; 1 mM, day 8): 100 SFU/ml
effect on IE-110(HSV)-activated growth of HIV ([3]; 3 mM, FIG. 3): profoundly depresses IE-110(HSV)-activated growth of HIV
HIV growth, U937 + HSV IE-110, reduced to background levels ([3]; 3 mM, days 4 to 8, FIG. 3): 250-300 SFU per ml
